Measured values as given in US20150297741A1, “BIO-ORTHOGONAL DRUG ACTIVATION” (TAGWORKS PHARMACEUTICALS B.V., priority 2012, published 2015).
Where two headings read alike, the source gives them in different places.

Legend:
[1] = Tetrazine-induced deprotection (TCO activation) under various conditions
Method: In addition, the tetrazine-induced TCO activation was studied under the same conditions. […] In addition to amines, also hydroxy and carboxylic acids form stable conjugates with TCO and can subsequently be cleaved in a range of conditions.
The TCO stock solution (10 μL 25 mM in acetonitrile; 2.5*10^−7 mol) was added to a solution of the specific condition (100 μL). A solution of 3,6-dimethyl-1,2,4,5-tetrazine (8, 20 uL 25 mM in acetonitrile; 5.0*10^−7 mol) was added, and the mixture was stirred at the specific condition for a certain amount of time. The reaction was monitored by HPLC-MS/PDA analysis and/or GC-MS analysis, and the percentage of deprotection was estimated.
(§1) Conditions: A) in acetonitrile with 5 equivalents of pyridine per TCO at 20° C.
(§2) B) in acetonitrile with 5 equivalents of DIPEA per TCO at 20° C. C) in acetonitrile with 5 equivalents of piperidine per TCO at 20° C. D) in acetonitrile with 5 equivalents of n-butylamine per TCO at 20° C. E) in acetonitrile with 5 equivalents of 2-mercaptoethanol per TCO at 20° C. F) in tetrahydrofuran with 5 equivalents of triphenylphosphine per TCO at 20° C. G) in acetonitrile with 5 equivalents of DCC per TCO at 20° C. H) in acetonitrile with 5 equivalents of PyBOP per TCO at 20° C. I) in acetonitrile with 1 v % of formic acid at 20° C. J) in chloroform at 20° C. K) in chloroform with 1 v % of formic acid at 20° C. L) in chloroform with 1 v % of trifluoroacetic acid at 20° C. M) in chloroform with 10 v % of trifluoroacetic acid at 20° C. N) in chloroform with 33 v % of trifluoroacetic acid at 20° C. Z) in 25% acetonitrile in water at 20° C.

[2] = Stability of a TCO compound under various conditions (HPLC-MS/PDA and/or GC-MS); format: physicochemical; details: for half-life at 2.3 mM: read-out: Stability of TCO: t1/2
Method: The TCO stock solution (10 μL 25 mM; 2.5*10^−7 mol) was added to a solution of the specific condition (100 μL). The mixture was stirred at the specific condition for a certain amount of time, and then the fate of the TCO compound was monitored by HPLC-MS/PDA analysis and/or GC-MS analysis, and an estimation of its stability was made.
as §1
as §2, with “I) in acetonitrile with 1 v % of formic acid at 20° C.” left out, “K) in chloroform with 1 v % of formic acid at 20° C.” left out

[3] = Tetrazine-induced doxorubicin release from Axial-TCO-1-Doxorubicin in PBS/MeCN (LCMS)
Method: PBS/MeCN (1 mL, 3/1), preheated at 37° C. and TCO-2-doxorubicin (10 μL of a 2.5 mM solution in DMSO, 1 eq.) were added to a preheated injection vial. Tetrazine (10 μL of a 25 mM solution in DMSO, 10 eq.) was added and the vial was vortexed. After incubation for 1 hour at 37° C., the vial was placed in LC-MS autosampler at 10° C. LC-MS analysis was performed using a 5% to 100% H2O/MeCN gradient over 11 minutes with a C18 reverse-phase column at 35° C. A control sample containing only TCO-2-doxorubicin (1 eq), as well as a sample containing only doxorubicin (1 eq.), was analyzed under the same conditions. All tetrazine containing samples were measured twice and the doxorubicin control sample was run after every three other samples during an overnight program. The peak area of released dox was divided by the peak area of TCO-2-doxorubicin or doxorubicin reference signals and multiplied by 100 to calculate the percentage of release. The calculated percentage of release was corrected when it was observed that the TCO-2-doxorubicin was not fully converted to inv-DA adduct(s). This was done by quantification of remaining dox-TCO, but full conversion was almost always observed. Peak areas (used for doxorubin quantification) were determined at A=470-500 nm where characteristic doxorubicin absorption takes place and peak integration was done by hand.
(§3) In a similar fashion as Example 3, the release of doxorubicin from TCO-1-doxorubucin as induced by tetrazines 1,8,9 in PBS/ACN and in serum was measured.

[4] = Tetrazine-induced doxorubicin release from Axial-TCO-1-Doxorubicin in serum (HPLC-MS/PDA); design: species or system mouse; details: 37° C.
Method: as §3
Serum experiments were conducted as follows:
TCO-1-doxorubucin (6.25×10^−8 mol) was dissolved in DMSO (0.050 mL), and PBS (0.475 mL) was added slowly in aliquots of 0.010 mL, followed by mouse serum (0.475 mL). […] Subsequently, cold MeCN (0.200 mL) was added, followed by centrifugation at 13400 rpm for 5 min. The supernatant was used for further analysis by HPLCMS/PDA analysis to determine the release of doxorubicin.

[5] = 0.1M HCOOH buffer, pH = 2.0 for 2 day, 20° C.
[6] = 0.1M NH3 buffer, pH = 11 for 5 day, 20° C.
[7] = 0.1M NH4OAc buffer, pH = 7.0 for 5 day, 20° C.
[8] = 0.1M NH4OAc buffer, pH = 8.0 for 8 day, 20° C.
[9] = 0.1M NH4OAc buffer, pH = 9.0 for 8 day, 20° C.
[10] = 0.1M NH4OAc buffer, pH = 10.0 for 8 day, 20° C.
[11] = 10% MeCN in H2O at 70° C. for 5 day
[12] = 10% MeCN in H2O for 5 day, 20° C.
[13] = with 5 eq. of DIPEA in MeCN for 16 h, 20° C.
[14] = with 5 eq. of HCOOH in MeCN for 16 h, 20° C.
[15] = with 5 eq. of PyBOP in MeCN for 16 h, 20° C.
[16] = with 5 eq. of pyridine in MeCN for 16 h, 20° C.

COc1cc(COC(=O)NC2CC/C=C/CC[C@@H]2N)cc(OC)c1OC (stereo partly shown)
Deprotection (%) [1, 5]: 0%
Deprotection (%) [1, 6]: 87%
Deprotection (%) [1, 7]: 0%
Deprotection (%) [1, 8]: 0%
Deprotection (%) [1, 9]: 25%
Deprotection (%) [1, 10]: 81%
Deprotection (%) [1, 11]: 50%
Deprotection (%) [1, 12]: 0%
Stability of TCO [2, 5]: stable
Stability of TCO: cyclization [2, 6]: < 5%
Stability of TCO [2, 7]: stable
Stability of TCO [2, 8]: stable
Stability of TCO [2, 9]: stable
Stability of TCO [2, 10]: stable
Stability of TCO: cyclization [2, 11]: <5%
Stability of TCO [2, 12]: stable

N[C@H]1CC/C=C/CCC1NC(=O)Oc1ccccc1 (stereo partly shown)
Deprotection (%) [1, 13]: 98.8%
Deprotection (%) [1, 14]: 33.9%
Deprotection (%) [1, 15]: 24.4%
Deprotection (%) [1, 16]: 71.7%
half-life at 2.3 mM ([2]; 0.1M NH4OAc buffer, pH = 7.0, 20° C.): 80 h
half-life at 2.3 mM ([2]; 0.1M NH4OAc buffer, pH = 8.0, 20° C.): 17 h
half-life at 2.3 mM ([2]; 0.1M NH4OAc buffer, pH = 9.0, 20° C.): 5.3 h
Stability of TCO: cyclization [2, 13]: 6.7%
Stability of TCO: cyclization [2, 14]: 1.9%
Stability of TCO: cyclization [2, 15]: 5.9%
Stability of TCO: cyclization [2, 16]: 2.6%

NC1/C=C/CCCCC1NC(=O)Oc1ccccc1 (stereo not shown)
half-life at 2.3 mM ([2]; in PBS buffer, 20° C.): 65 h

NC1CCCC/C=C/C1NC(=O)Oc1ccccc1 (stereo not shown)
half-life at 2.3 mM ([2]; in PBS buffer, 20° C.): 29 h

COc1cccc2c1C(=O)c1c(O)c3c(c(O)c1C2=O)C[C@@](O)(C(=O)CO)C[C@@H]3O[C@H]1CC(NC(=O)O[C@H]2/C=C/CCCCC2)[C@H](O)C(C)O1 (stereo partly shown) [Axial-TCO-1-Doxorubicin]
Doxorubicin release (%) from Axial-TCO-1-Doxorubicin without tetrazine ([3]; no tetrazine, 37° C., PBS (72 h), column PBS/MeCN (3/1)): 0%
Doxorubicin release (%) from Axial-TCO-1-Doxorubicin without tetrazine ([4]; no tetrazine, serum (24 h)): 0%

Cc1nnc(C)nn1 [tetrazine 8, 3,6-dimethyl-1,2,4,5-tetrazine]
Doxorubicin release (%) from Axial-TCO-1-Doxorubicin ([3]; 10 equiv. tetrazine, 25% MeCN in PBS (PBS/MeCN 3/1), 37° C., LCMS at 4 h, n = 3): 79 ± 3%
release of doxorubicin from TCO-1-doxorubucin, comparison of tetrazines 1, 8, 9 ([3]; PBS/ACN and serum): highest release
Doxorubicin release (%) from Axial-TCO-1-Doxorubicin ([4]; 10 equiv. tetrazine, 50% serum, LCMS at 4 h, n = 3): 75 ± 4%
